Data from the supplement of paper PMC12317010.
Structures can show the parent of a compound that is named as a salt.

Test: collision cross section in nitrogen (drift tube, single-field); higher = larger gas-phase ion size
[1] = ion type: [M+H], ion source: ESI, ion mode: Positive
[2] = ion type: [M+Na], ion source: ESI, ion mode: Positive
[3] = ion type: [M+H], ion source: APCI, ion mode: Positive
[4] = ion type: [M-H], ion source: ESI, ion mode: Negative
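Further: chemical standards at 10 µM analysed by drift tube IMS-QTOF MS in about 3.95 torr nitrogen, mean of duplicate injections differing ≤1%, mass error below 10 ppm.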

| SMILES | collision cross section in nitrogen [1] [Å²] | collision cross section in nitrogen [2] [Å²] | collision cross section in nitrogen [3] [Å²] | collision cross section in nitrogen [4] [Å²] | collision cross section in nitrogen (ion type: [M+], ion source: APCI, ion mode: Positive) [Å²] |
| --- | --- | --- | --- | --- | --- |
| CCCCC(CC)COC(=O)c1ccc(C(=O)OCC(CC)CCCC)c(C(=O)OCC(CC)CCCC)c1 (stereo unspecified) [Tris(2-ethylhexyl) trimellitate] | 256.5 | 264.6 |  |  |  |
| O=c1n(CCO)c(=O)n(CCO)c(=O)n1CCO [Tris(2-hydroxyethyl) isocyanurate] |  | 159.3 |  |  |  |
| Cc1ccc(OP(=O)(Oc2ccc(C)cc2)Oc2ccc(C)cc2)cc1 [Tris(4-methylphenyl) phosphate] | 190.1 | 200.1 | 191 |  |  |
| S=c1[nH]c(=S)[nH]c(=S)[nH]1 [Trisodium 2,4,6-trithioxo-1,3,5-triazinane-1,3,5-triide] |  |  |  | 125.6 |  |
| CC1(C)CCC(=Cc2ccc(Cl)cc2)C1(O)Cn1cncn1 (stereo unspecified) [Triticonazole] | 180.6 | 189 | 181.7 |  |  |
| ClC(c1ccccc1)(c1ccccc1)c1ccccc1 [Trityl chloride] |  |  | 162.5 |  |  |
| Cc1ccc(OP(=O)(Oc2ccc(C)cc2C)Oc2ccc(C)cc2C)c(C)c1 [Trixylyl phosphate] | 203.1 | 212.6 | 204.2 |  |  |
| Cc1c(C)c2c(c(C)c1O)CCC(C)(COc1ccc(CC3SC(=O)NC3=O)cc1)O2 (stereo unspecified) [Troglitazone] |  |  |  | 193.9 |  |
| O=c1ccc2ccc(O)cc2o1 [Umbelliferone] |  |  |  | 127.4 |  |
| O=C(O)CCCCCCCCCC(=O)O [Undecanedioic acid] |  |  |  | 149 |  |
| O=c1[nH]c(=O)c2[nH]c(=O)[nH]c2[nH]1 [Uric acid] |  |  |  | 126.4 |  |
| COc1ccc(C(CN(C)C)C2(O)CCCCC2)cc1 (stereo unspecified) [Venlafaxine hydrochloride] | 170.7 | 177.7 | 170.8 |  |  |
| C=CC1(C)OC(=O)N(c2cc(Cl)cc(Cl)c2)C1=O (stereo unspecified) [Vinclozolin] |  |  |  | 154.4 |  |
| COP(=O)(OC)O/C(=C\Cl)c1cc(Cl)c(Cl)cc1Cl [Z-Tetrachlorvinphos] |  | 177.9 |  |  |  |
| C[C@H]1CCCC(=O)CCC/C=C/c2cc(O)cc(O)c2C(=O)O1 [Zearalenone] |  |  |  | 177.5 |  |
| CCC(C)(NC(=O)c1cc(Cl)c(C)c(Cl)c1)C(=O)CCl (stereo unspecified) [Zoxamide] | 175.9 | 188 |  |  |  |
| c1csc(-c2ccc(-c3cccs3)s2)c1 [alpha-Terthiophene] |  |  |  |  | 146.4 |
| CC1(C)[C@H](/C=C(\Cl)C(F)(F)F)[C@@H]1C(=O)O[C@@H](C#N)c1cccc(Oc2ccccc2)c1 [lambda-Cyhalothrin] |  | 190.4 |  |  |  |

Now from value to compound, other results behind:

| collision cross section in nitrogen [1] [Å²] | collision cross section in nitrogen [2] [Å²] | collision cross section in nitrogen [3] [Å²] | collision cross section in nitrogen [4] [Å²] | SMILES | collision cross section in nitrogen (ion type: [M+], ion source: APCI, ion mode: Positive) [Å²] |
| --- | --- | --- | --- | --- | --- |
|  |  |  | 177.1 | CC(=O)c1c(O)c(C)c(O)c2c1OC1=CC(=O)C(C(C)=O)C(=O)C12C (stereo unspecified) [Usnic acid] |  |
|  |  |  | 137.1 | CCCC(CCC)C(=O)O [Valproic acid] |  |
| 187.6 | 191.4 | 188 | 188.9 | Clc1ccc(Nc2nnc(Cc3ccncc3)c3ccccc23)cc1 [Vatalanib dihydrochloride] |  |
| 183.2 |  | 182.5 |  | CC[C@]12CCCN3CCc4c(n(c5ccccc45)[C@@](O)(C(=O)OC)C1)[C@@H]32 [Vincamine] |  |
| 185 | 188 | 185 |  | COc1cccc([C@H](O)C2CCN(CCc3ccc(F)cc3)CC2)c1OC [Volinanserin] |  |
| 166.9 | 179.1 | 167.4 | 172.2 | CC(=O)CC(c1ccccc1)c1c(O)c2ccccc2oc1=O (stereo unspecified) [Warfarin] |  |
| 171.7 | 175.7 | 171.8 |  | CN(CCO)CC(O)Cn1cnc2c1c(=O)n(C)c(=O)n2C (stereo unspecified) [Xanthinol niacinate] |  |
|  |  | 135.2 |  | O=c1c2ccccc2oc2ccccc12 [Xanthone] |  |
| 208.6 | 213 | 208.6 | 216.1 | CCOC(=O)CN[C@@H](C(=O)N1CC[C@H]1C(=O)NCc1ccc(/C(N)=N/O)cc1)C1CCCCC1 [Ximelagatran] |  |
| 239 | 262.5 | 240.1 |  | Cc1occc1C(=O)Nc1ccc(C(=O)N2CCC(F)(F)/C(=C\C(=O)N3CCC(N4CCCCC4)CC3)c3ccccc32)cc1 [YM 218] |  |
| 192.4 | 195.9 | 192.3 |  | c1ccc(C(O[C@@H]2CCCN(CCc3ccc4c(c3)OCO4)C2)c2ccccc2)cc1 [Zamifenacin] |  |
|  |  |  | 188.9 | O=C(O)Cn1c(=O)n(Cc2ccc(Br)cc2F)c(=O)c2ccc(Cl)cc21 [Zenarestat] |  |
|  | 156.4 |  |  | CC(c1cc2ccccc2s1)N(O)C(N)=O (stereo unspecified) [Zileuton] |  |
|  |  |  | 129.1 | N#CCc1cccc(C(F)(F)F)c1 [[3-(Trifluoromethyl)phenyl]acetonitrile] |  |
| 175.5 | 178.2 | 175.6 | 171 | Cc1cccc(Nc2cc(Cl)nc(SCC(=O)O)n2)c1C [[4-Chloro-6-(2,3-xylidino)-2-pyrimidinylthio]acetic acid] |  |
| 277.8 | 278.5 |  | 286.4 | OC[C@H]1O[C@@H]2O[C@H]3[C@H](O)[C@@H](O)[C@@H](O[C@H]4[C@H](O)[C@@H](O)[C@@H](O[C@H]5[C@H](O)[C@@H](O)[C@@H](O[C@H]6[C@H](O)[C@@H](O)[C@@H](O[C@H]7[C@H](O)[C@@H](O)[C@@H](O[C@H]1[C@H](O)[C@H]2O)O[C@@H]7CO)O[C@@H]6CO)O[C@@H]5CO)O[C@@H]4CO)O[C@@H]3CO [alpha-Cyclodextrin] |  |
| 160.7 | 185.7 | 161.7 |  | O=c1cc(-c2ccccc2)oc2c1ccc1ccccc12 [alpha-Naphthoflavone] |  |
|  |  |  | 133 | O=C1NC(=O)[C@@H]2CC=CC[C@H]12 [cis-1,2,3,6-Tetrahydrophthalimide] |  |
|  |  |  | 151.5 | N[C@H](Cc1c[nH]c2ccccc12)C(=O)O [d-Tryptophan] |  |
|  | 318.1 |  | 314.1 | OC[C@H]1O[C@@H]2O[C@H]3[C@H](O)[C@@H](O)[C@@H](O[C@H]4[C@H](O)[C@@H](O)[C@@H](O[C@H]5[C@H](O)[C@@H](O)[C@@H](O[C@H]6[C@H](O)[C@@H](O)[C@@H](O[C@H]7[C@H](O)[C@@H](O)[C@@H](O[C@H]8[C@H](O)[C@@H](O)[C@@H](O[C@H]9[C@H](O)[C@@H](O)[C@@H](O[C@H]1[C@H](O)[C@H]2O)O[C@@H]9CO)O[C@@H]8CO)O[C@@H]7CO)O[C@@H]6CO)O[C@@H]5CO)O[C@@H]4CO)O[C@@H]3CO [gamma-Cyclodextrin] |  |
|  |  |  | 151.6 | N[C@@H](Cc1c[nH]c2ccccc12)C(=O)O [l-Tryptophan] |  |
|  |  |  | 151.6 | CCCCCOC(=O)CCCCC [n-Amyl caproate] |  |
